Assay [1] has as its target T1, Heat shock factor protein 1 (Mus musculus, UniProt P38532).
T1 sequence (P38532 whole entry): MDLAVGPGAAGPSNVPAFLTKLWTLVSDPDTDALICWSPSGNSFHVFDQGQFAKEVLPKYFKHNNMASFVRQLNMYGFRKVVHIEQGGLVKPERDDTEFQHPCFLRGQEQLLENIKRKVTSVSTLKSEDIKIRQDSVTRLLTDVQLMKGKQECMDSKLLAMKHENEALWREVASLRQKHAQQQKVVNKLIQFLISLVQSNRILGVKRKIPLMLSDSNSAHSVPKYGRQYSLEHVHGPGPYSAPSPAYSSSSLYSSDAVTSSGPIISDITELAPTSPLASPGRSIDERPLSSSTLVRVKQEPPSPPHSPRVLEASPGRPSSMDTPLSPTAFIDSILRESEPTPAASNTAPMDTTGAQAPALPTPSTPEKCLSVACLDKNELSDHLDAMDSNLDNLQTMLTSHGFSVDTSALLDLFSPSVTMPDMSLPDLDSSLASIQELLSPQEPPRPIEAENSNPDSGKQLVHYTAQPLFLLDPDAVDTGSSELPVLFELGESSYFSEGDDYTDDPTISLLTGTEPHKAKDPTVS
Kind of assay: enhancement of HSF1-driven luciferase signal – cell-based, NIH3T3, luminescence, dose retest, confirmation (AID 435004).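 Note: stress induced by proteasome inhibitor MG132 added 30 min after compound; luciferase reporter driven by HSF1 response element in NIH3T3 cells; actives raise luminescence as potentiators of the MG132 stress response.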 It counts as functional.

Assay [2] is described as follows: luciferase reporter signal suppression in cells – H4 neuroglioma cells, luminescence, dose response (AID 1990). It counts as functional, cell-based.
Assay [3] in a line: Luminescence Cell-Based Dose Response HTS to Identify Inhibitors of 5'UTR Stem-Loop Driven Prion Protein mRNA Translation in H4 Neuroglioblastoma Cells. [Related pubchem assays: 1827 (Project Summary), 1813 (Primary HTS)]. It counts as functional.
Assay [4] in a line: alpha-synuclein stem-loop luciferase translation blockers – H4 neuroglioma cells, luminescence, confirmation (AID 1988). It counts as functional, cell-based.
Assay [5] concerns the target T2, Corticotropin-releasing factor receptor 2/Corticotropin-releasing factor-binding protein (Homo sapiens, UniProt P24387+Q13324).
T2 sequence (Q13324 whole entry): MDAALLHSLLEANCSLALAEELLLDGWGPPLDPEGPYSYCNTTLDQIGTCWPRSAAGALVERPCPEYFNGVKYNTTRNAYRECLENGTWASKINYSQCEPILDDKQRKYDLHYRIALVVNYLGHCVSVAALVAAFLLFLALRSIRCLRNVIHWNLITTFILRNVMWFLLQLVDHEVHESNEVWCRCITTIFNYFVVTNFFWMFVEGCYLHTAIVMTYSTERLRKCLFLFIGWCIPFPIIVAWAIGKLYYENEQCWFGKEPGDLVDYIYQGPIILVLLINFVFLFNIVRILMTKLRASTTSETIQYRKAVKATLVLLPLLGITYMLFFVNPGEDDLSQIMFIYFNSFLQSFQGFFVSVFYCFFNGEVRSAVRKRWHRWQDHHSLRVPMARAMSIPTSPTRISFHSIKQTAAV
T2 sequence (P24387 whole entry): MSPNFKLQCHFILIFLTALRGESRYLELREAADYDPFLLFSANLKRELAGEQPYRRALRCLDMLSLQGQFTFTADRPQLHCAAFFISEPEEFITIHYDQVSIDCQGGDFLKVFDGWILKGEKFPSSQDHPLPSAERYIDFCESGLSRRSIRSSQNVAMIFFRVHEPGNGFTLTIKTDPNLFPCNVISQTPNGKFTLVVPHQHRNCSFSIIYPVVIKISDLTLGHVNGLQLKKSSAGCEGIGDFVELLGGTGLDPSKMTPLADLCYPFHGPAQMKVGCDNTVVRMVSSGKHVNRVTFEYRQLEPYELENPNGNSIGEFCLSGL
Kind of assay: activators of CRF receptor 2 with binding protein – uHTS hits, confirmation (AID 602473). The assay is classed as functional. To be noted: read-out: EC50_Mean.

A short description of assay [6]: Luminescence Cell-Based Dose Response HTS to Identify Activators of Luciferase Translation or Activity in H4 […] Cells. [Related pubchem assays: 1829 (Project Summary), 1814 (Primary HTS)]. The assay is classed as functional.
The next assay has as its system H4. Nature of the assay: Luminescence Cell-Based Dose Response HTS to Identify Activators of 5'UTR Stem-Loop Driven Prion Protein mRNA Translation in H4 Neuroglioblastoma Cells. [Related pubchem assays: 1829 (Project Summary), 1814 (Primary HTS)]. It counts as functional. The following applies: Homo sapiens.
The target of assay [7] is Luciferin 4-monooxygenase (Photinus pyralis, UniProt P08659). Kind of assay: inhibition of purified Photinus pyralis luciferase – biochemical, luminescence, dose response (AID 1891).
Assay [8] can be described thus: Luminescence Cell-Based Dose Confirmation HTS to Identify Inhibitors of Platelet Dense Granule Release. [Related pubchem assays: 1663 (Primary HTS), 1678 (Summary of Project)]. The assay is classed as functional.
Assay [9] concerns the target T2, Corticotropin-releasing factor receptor 2/Corticotropin-releasing factor-binding protein. Kind of assay: Dose Response confirmation of uHTS hits for small molecule antagonists of the CRF-binding protein and CRF-R2 receptor complex. It counts as functional. To be noted: read-out: IC50_Mean.
Assay [10] can be described thus: Luminescence Cell-Based Dose Retest to Confirm Inhibitors of Cancer Stem Cells. [Related pubchem assays (depositor defined):AID2717, AID2721]. To be noted: Homo sapiens. The assay is classed as functional.
The target in assay [11] is T1, Heat shock factor protein 1. Kind of assay: decrease of HSF1-responsive luciferase luminescence – cell-based, NIH3T3, dose retest, confirmation (AID 2382).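 Note: NIH3T3 fibroblasts with HSF1-driven luciferase reporter stressed by proteasome inhibitor MG132; luminescence from HSF1-driven luciferase expression after 8 hours of MG132 stress.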 The assay is classed as functional.
In the next assay the target is Cytochrome P450 2C9 (Homo sapiens, UniProt P11712).
Assay [12] relates to Streptococcus sp. 'group A'. Kind of assay: Streptococcus pyogenes SK(-)GAS viability under kanamycin – luminescence, BacTiterGlo, confirmation, counter-screen for streptokinase expression inhibitor project, dose response (AID 1900). It counts as functional, organism-based.
The test system of a further assay is Streptococcus. Kind of assay: GAS UMAA2166 growth inhibition – luminescence, BacTiterGlo, counter-screen for streptokinase expression inhibitor project, dose response (AID 1915).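 Note: potency for reduction of bacterial viability or growth.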 The assay is classed as functional, organism-based. A general note: A counterscreen serves to expose hits that act by an unwanted route or on another target.
A short description of assay [13]: viability of uninfected HEp-2 cells – cell-based, HTS, cytotoxicity control for RSV inhibitor project, dose response (AID 2410). The assay is classed as functional. The following applies: human respiratory syncytial virus.
A short description of assay [14]: HIV-1 AD8 envelope cell-cell fusion blockers – cherry-pick, dose response (AID 652062).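 Note: luciferase signal from cell-cell fusion driven by HIV-1 clade B AD8 Env; potency is for inhibitors of fusion seen as a drop in luminescence.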 It counts as functional, cell-based.

The source made the active and inactive calls. Cut-off read from the data, not from the text of the source, for most assays here: actives have a measured EC50 and inactives only a lower limit.

The term AC50 denotes the midpoint of the concentration-response curve, whichever way the signal moves. Broadly, the CC50 is the concentration at which the toxic effect on the cells reaches its halfway point.

Sequence of Luciferin 4-monooxygenase (P08659 whole entry): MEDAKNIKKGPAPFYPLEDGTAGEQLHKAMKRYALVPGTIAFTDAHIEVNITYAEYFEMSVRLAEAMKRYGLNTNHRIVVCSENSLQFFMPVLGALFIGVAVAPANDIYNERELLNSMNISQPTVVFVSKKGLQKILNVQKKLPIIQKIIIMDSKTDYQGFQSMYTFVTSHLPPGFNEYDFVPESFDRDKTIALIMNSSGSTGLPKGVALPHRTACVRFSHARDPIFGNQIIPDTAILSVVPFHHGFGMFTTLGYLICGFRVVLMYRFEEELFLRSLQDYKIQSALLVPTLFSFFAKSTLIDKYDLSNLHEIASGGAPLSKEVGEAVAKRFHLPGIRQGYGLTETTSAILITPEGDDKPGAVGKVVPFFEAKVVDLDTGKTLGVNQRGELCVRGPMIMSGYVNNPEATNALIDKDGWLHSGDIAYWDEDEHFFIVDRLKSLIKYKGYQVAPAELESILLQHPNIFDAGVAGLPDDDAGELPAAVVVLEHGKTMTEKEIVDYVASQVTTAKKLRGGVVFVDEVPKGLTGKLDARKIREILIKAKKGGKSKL
Sequence of Cytochrome P450 2C9 (P11712 whole entry): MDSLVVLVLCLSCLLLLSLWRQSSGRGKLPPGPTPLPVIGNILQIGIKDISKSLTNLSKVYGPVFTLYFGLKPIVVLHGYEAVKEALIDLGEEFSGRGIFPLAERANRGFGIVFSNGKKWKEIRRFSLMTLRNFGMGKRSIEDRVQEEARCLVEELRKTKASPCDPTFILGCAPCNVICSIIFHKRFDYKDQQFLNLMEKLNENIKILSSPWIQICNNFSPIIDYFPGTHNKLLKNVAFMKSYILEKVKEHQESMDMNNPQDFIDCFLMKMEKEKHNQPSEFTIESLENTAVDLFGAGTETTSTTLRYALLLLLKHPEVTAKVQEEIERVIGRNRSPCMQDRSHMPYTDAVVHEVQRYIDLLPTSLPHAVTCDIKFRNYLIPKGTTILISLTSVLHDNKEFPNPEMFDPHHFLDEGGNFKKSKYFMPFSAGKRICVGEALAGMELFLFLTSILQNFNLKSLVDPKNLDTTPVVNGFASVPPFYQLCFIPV

`Cc1cccc(-c2cc(C(=O)Nc3ccncc3)c3ccccc3n2)c1`: the EC50 in assay [1] was 43.1 µM (active). As to `COc1cccc(CNC(=O)c2nnn(CC(=O)Nc3ccc(Br)cc3)c2N)c1`, the EC50 in assay [2] is 46.9 µM (active); in [3], 103 µM (active); in assay [4] it was 11 µM (active). As for `CCOc1ccc(C2C(C#N)=C(N)N3C(=C2C#N)Sc2ccccc23)cc1` (stereo unspecified), the EC50 in assay [5] was 8.06 µM (active). Take `C=C1CCC2[C@](C)(CO)[C@H](O)CC[C@@]2(C)[C@@H]1C/C=C1\C(=O)OC[C@H]1O` (stereo partly specified): the EC50 was > 120 µM (not active) in assay [6] and 33 µM (active) in the assay with H4. Regarding `Cn1c(NNC(=O)c2ccccc2F)cc(=O)n(C)c1=O`, the EC50 in [2], in [3] and in assay [4] was > 120 µM (not active) throughout. With `COC(=O)c1sccc1NC(=O)Nc1ccc(OC)cc1`, the figures for the EC50 in [7] and in assay [8] were 0.358 µM (active) and 1.33 µM (active), respectively. Consider `O=C1CC2CS(=O)(=O)CC2N1c1ccc(Oc2ccccc2)cc1` (stereo unspecified), for which, in [9], the IC50 is > 47.1 µM (inactive). Moreover, the EC50 in [5] is > 53 µM (inactive). For `Oc1ccc(-c2cnc(-c3ccc(O)cc3)nc2)cc1`, in assay [10], the AC50 is 0.342 µM (active). Also, the EC50 in assay [1] was 4.99 µM (active). `CCN(CC)S(=O)(=O)c1cccc(NC(=O)COC(=O)CCC(=O)c2ccc(F)cc2)c1`: the EC50 in assay [7] and in [8] was > 112 µM (not active) in each case.

Take `Cc1ccnc(NS(=O)(=O)c2ccc(NC(=O)COc3ccccc3)cc2)n1`: the EC50 in assay [2] was > 120 µM (not active); in assay [3], > 120 µM (not active); in assay [11] it was > 195 µM (not active); in assay [4], > 120 µM (not active).

With `COc1ccc(NC(=O)CSc2nnc(Cn3cnc([N+](=O)[O-])n3)n2C)cc1`, in assay [1], the EC50 is > 260 µM (inactive). As for `CC(C)NC(=O)NC(=O)COc1ccc(Br)cc1Br`, the EC50 in assay [1] is > 260 µM (inactive). Take `COC(=O)c1ccc(Oc2nc(C)cc(Oc3ccccc3)n2)cc1`: the EC50 in [7] and in [8] was > 112 µM (not active) each time. In the case of `COc1cc2nc(S)nc(NCc3ccc(Cl)cc3)c2cc1OC`, the EC50 in assay [1] is > 260 µM (inactive).

Consider `COc1cc(C2C(C#N)=C(N)N(Nc3ccccc3)C3=C2C(=O)CC(C)(C)C3)ccc1OCc1ccccc1` (stereo unspecified), for which the EC50 was 13.4 µM (active) in assay [2], 18.7 µM (active) in assay [3] and > 120 µM (not active) in assay [4]. At Cytochrome P450 2C9, the AC50 was 0.794 µM (inconclusive). Take `Cc1onc(C(=O)Nc2ccc3c(c2)OCO3)c1[N+](=O)[O-]`: the EC50 in [7] and in assay [8] was > 112 µM (not active) throughout.

Turning to `O=C(NCc1nnc(SCc2ccccc2)n1-c1ccccc1)C12CC3CC(CC(C3)C1)C2`, the EC50 in [1] was > 260 µM (inactive). On to `COc1cccc(CNc2ccc(Br)cn2)c1O`, for which the EC50 in [1] was 34.1 µM (active).

Consider `O=S(=O)(Nc1cccc(-c2ccc3nncn3n2)c1)c1cc(F)ccc1F`, for which the EC50 in [7] and in assay [8] was > 112 µM (not active) throughout. For the compound `CC1(c2ccc(OC(F)F)cc2)NC(=O)N(CC(=O)Nc2cccnc2Cl)C1=O` (stereo unspecified), the EC50 in assay [5] was 15 µM (active). Consider `CC(C)CC(=O)Nc1ccc(C(=O)NNC(=S)NC(=O)C2CCCCC2)cc1`, for which the EC50 in assay [2] is 12.5 µM (active); in assay [12] it was 1.65 µM (active); in assay [3], 14.8 µM (active); in [4] it was 12.4 µM (active); in the assay with Streptococcus, 5.23 µM (active). For `O=C1c2ccccc2C(=O)c2c1cccc2-n1nnc2ccccc21`, the EC50 in assay [2] was 16.3 µM (active); in assay [3] it was > 120 µM (not active); in assay [4], > 120 µM (not active).

On to `Cc1c(C#N)c(N)nc2c3c(sc12)NC(=O)CC3c1ccc(F)cc1` (stereo unspecified), for which the EC50 in [7] and in [8] was > 112 µM (not active) in each case. For `O=C1NC(c2ccccc2)=C(c2nc3ccccc3s2)C(c2ccc(F)cc2)N1` (stereo unspecified), the CC50 in assay [13] was 10.4 µM (active). Further, the results for the EC50 in assay [2], in assay [3] and in [4] were > 60 µM (not active), > 120 µM (not active) and 20.8 µM (active), respectively. Consider `CC(Nc1ccc([N+](=O)[O-])cc1[N+](=O)[O-])c1ccccc1` (stereo unspecified), for which, in [9], the IC50 was 34.7 µM (active). Besides, the EC50 in assay [5] was > 53 µM (inactive). For `Cc1ccc(CC(=O)NCCCc2ccccc2)cc1`, the IC50 in assay [9] is > 47.1 µM (inactive). Further, the EC50 in assay [5] was > 53 µM (inactive). Take `Cc1cc(C(=O)NNC(=O)C(CCC(N)=O)NS(=O)(=O)c2ccc(Cl)cc2)c(C)o1` (stereo unspecified): the IC50 in assay [9] was > 47.1 µM (inactive). In addition, the EC50 in [5] is > 53 µM (inactive).

`Cc1ccc(NC(=O)N2CCCC2C(=O)Nc2c(C)cc(C)cc2C)cc1` (stereo unspecified): in [1], the EC50 is > 260 µM (inactive).

With `CC1=C(C(=O)N(C(C)C)C(C)C)CC(CC(=O)NC2CCCCC2)C(=O)N1Cc1ccccc1` (stereo unspecified), in assay [9], the IC50 was > 47.1 µM (inactive). In addition, the EC50 in assay [5] was > 53 µM (inactive). `O=C(NCc1ccccc1)c1ccc(Cl)cc1`: in [9], the IC50 is > 47.1 µM (inactive). Further, the EC50 in assay [5] is > 53 µM (inactive). In the case of `Nn1cnnc1N/N=C/c1cc([N+](=O)[O-])c(Cl)cc1Cl`, in assay [1], the EC50 was > 260 µM (inactive). `CCc1ccccc1/N=C/c1c(C)c(C#N)c2nc3ccccc3n2c1O`: in assay [5], the EC50 is 4.75 µM (active). `COc1cccc(S(=O)(=O)N2CC3(CN(C(=O)Nc4cccc(F)c4)[C@H](CO)c4[nH]c5cc(OC)ccc5c43)C2)c1`: the AC50 in [14] is 22 µM (active).

`O=Nc1c(-c2ccccc2)[nH]n(-c2ccccc2)c1=O`: the EC50 in assay [1] is 3.87 µM (active).

Turning to `CCCCOC(=O)N/N=C/C=C/c1ccccc1`, the EC50 in [7] and in assay [8] was > 112 µM (not active) in each case. `Cc1ccsc1/C=N/N1CCN(C2c3ccccc3-c3ccccc32)CC1`: the EC50 in assay [7] and in assay [8] was > 112 µM (not active) each time.

For the origin of these results see ChEMBL document CHEMBL1201862, “PubChem BioAssay data set” (2004).
